According to patent publication US5650415A, “Quinoline compounds” (Sugen, Inc., priority 1995, dated 1997):

Assays:
IGF-1R = target: T1, IGF-1R (Homo sapiens, UniProt P08069); experiment: Cellular IGF-1 Receptor ELISA; type: cell-based; conditions: 3T3/IGF-1R cells
T1 construct: expressed in transfected cells; host or cells: 3T3/IGF-1R cells (mouse 3T3 host)
Description: Cellular IGF-1 Receptor ELISA (Version I)
(1). The cell line used in this assay is 3T3/IGF-1R, a cell line which overexpresses IGF-1 Receptor.
(2). 3T3/IGF-1R is grown in an incubator with 5% CO2 at 37° C. The growth media is DMEM+10% FBS (heat inactivated)+2mM L-Glutamine.
(3). For ELISA plate coating, the anti-IGF-1R antibody named 17-69 is used. Antibodies are purified by the Enzymology Lab, SUGEN, Inc.
All the following steps are conducted at room temperature unless it is specifically indicated. All ELISA plate washings are performed by rinsing the plate with tap water three times, followed by one TBST rinse. Pat plate dry with paper towels.
(1). The cells, grown in tissue culture dish (10 cm, Corning 25020-100) to 80-90% confluence, are harvested with Trypsin-EDTA (0.25%, 0.5 ml/D-100, GIBCO).
(2). Resuspend the cells in fresh DMEM+10% FBS+2mM L-Glutamine, and transfer to 96-well tissue culture plate (Corning, 25806-96) at 20,000 cells/well (100 ul/well). Incubate for 1 day then replace medium to serum-free medium (90/ul) and incubate in 5% CO2 and 37° C. overnight.
(1). Coat the ELISA plate (Corning 25805-96) with Anti-IGF-1R Antibody at 0.5 ug/well in 100 ul PBS at least 2 hours.
(2). Remove the coating solution, and replace with 100 ul Blocking Buffer, and shake for 30 minutes. Remove the blocking buffer and wash the plate just before adding lysate.
(1). The drugs are tested in serum-free condition.
(2). Dilute drug stock (in 100% DMSO) 1:10 with DMEM in 96-well poly-propylene plate, and transfer 10 ul/well of this solution to the cells to achieve final drug dilution 1:100, and final DMSO concentration of 1.0%. Incubate the cells in 5% CO2 at 37° C. for 2 hours.
(3). Prepare fresh cell lysis buffer (HNTG HNTG 2 ml EDTA 0.1 ml Na3VO4 0.1 ml Na4P2O7 0.1 ml H20 7.3 ml HNTG* 10 ml.
(4). After drug incubation for two hours, transfer 10 ul/well of 200 nM IGF-1 Ligand in PBS to the cells (Final Conc=20 nM), and incubate at 5% CO2 at 37° C. for 10 minutes.
(5). Remove media and add 100ul/well HNTG* and shake for 10 minutes. Look at cells under microscope to see if they are adequately lysed.
(6). Use a 12-channel pipette to scrape the cells from the plate, and homogenize the lysate by repeat aspiration and dispense. Transfer all the lysate to the antibody coated ELISA plate [V.2.(2)], and shake for 1 hour.
(7). Remove the lysate, wash the plate, transfer anti-pTyr (1:3,000 with TBST) 100 ul/well, and shake for 30 minutes.
(7). Remove anti-pTyr, wash the plate, transfer detection antibody (1:3,000 with TBST) 100 ul/well, and shake for 30 minutes.
(8). Remove detection antibody, wash the plate, and transfer fresh ABTS/H2O2 (1.2 ul H2O2 to 10 ml ABTS) 100 ul/well to the plate to start color development.
(9). Measure OD (410 nm) in Dynatec MR5000, which is connected to Ingres.

HER2 = HER2 whole cell kinase ELISA (second HER2 column of Table 1); type: cell-based; conditions: cell line not given
Source text: The following examples illustrates the ability of the exemplary compounds to inhibit receptor tyrosine kinases, such as HER2 and/or EGFR. The following target cells were used for cellular kinase assays: NIH3T3 clone C7 (Honegger et al., supra) engineered to over-express human EGF receptor; NIH3T3 cells engineered to over-express a chimeric receptor containing the EGFR extracellular domain and the HER2 intracellular kinase domain; the human mammary carcinoma line BT474 (ATCC HTB2) expressing HER2; and the human glioblastoma line U1242 that expresses PDGFR-beta. Growth assays were carried out using human mammary epithelial SKBR3 (ATCC HTB30) cells (SKBR3 cells over-express HER2), SKOV3 (AT(D(D HTB77) human ovarian cancer cell line (SKOV3 cells also over-express HER2), A431 cells (A431 cells over-express EGFR) MCF7 human breast carcinoma cells, MCF7 cells overexpressing the HER2 kinase (MCF7-HER2), NIH3T3 cells, and NIH3T3 cells overexpressing the HER2 kinase (3T3-HER2. EGFR-HER2 Chimeric Recetor HER2 kinase activity (EGFR-3T3) in whole cells was measured as described below: HER2-ELISA HER2-BT474 assays measuring whole cell HER2 activity was carried out as described below: 1. The cell line used in this assay is BT-474 (ATCC HBT20), a human breast tumor cell line which expresses high levels of HER2 kinase. 2. BT-474 is grown in an incubator with 5% CO2 at 37° C. The growth media is RPMI+10% FBS+GMS-G (Gibco supplement)+Glutamine. 3. A monoclonal anti-HER2 antibody is used in ELISA. (a) Grow BT474 cells in tissue culture dishes (10 cm, Corning 25020-100) to 80-90% confluence and collect using Trypsin-EDTA (0.25%, GIBCO). (b) Resuspend the cells in fresh medium and transfer to 96-well tissue culture plates (Corning, 25806-96) at about 25,000-50,000 cells/well (100 μl/well). Incubate the cells in 5% CO2 at 37° C. overnight. (a) Coat the ELISA plate (Corning 25805-96) with anti HER2 antibody at 0.5 μg/well in 150 μl PBS overnight at 4.sunburst. C., and seal with parafilm. The antibody coated plates can be used up to 2 weeks, when stored at 4° C. (b) On the day of use, remove the coating solution, replace with 200 μl of Blocking Buffer, shake the plate, and then remove the blocking buffer and wash the plate just before adding lysate. (a) TBST the drugs in serum-free condition. Before adding drugs, the old media (b) Dilute drug stock (in 100% DMSO) 1:10 with RPMI, and transfer 10 μl/well of this solution to the cells to achieve a final drug DMSO concentration at 1%. Incubate the cells in 5% CO2 at 37° C. (d) After drug preincubation for two hours remove all the solution from the plate, transfer HNTG* 100 μl/well to the cells, and shake for 10 minutes. (e) Use a 12-channel pipette to scrape the cells from the plate, and homogenize the lysate by repeat aspiration and dispensing. Transfer all the lysate to the ELISA plate and shake for 1 hour. (f) Remove the lysate, wash the plate, add anti-pTyr (1:3,000 with TBST) 100 μl/well, and shake for 30 minutes. (g) Remove anti-pTyr, wash the plate, add goat anti-rabbit IgG conjugated antibody (1:5,000 with TBST) 100 μl/well, and shake for 30 minutes. (h) Remove anti-rabbit IgG antibody, wash the plate, and add fresh ABTS/H2 O2 (1.2 μl H2 O2 to 10 ml ABTS) 100 l/we1l to the plate to start color development, which usually takes 20 minutes. (i) Measure OD 410 nm, Dynatec MR5000.

T1 sequence (P08069 31-1367): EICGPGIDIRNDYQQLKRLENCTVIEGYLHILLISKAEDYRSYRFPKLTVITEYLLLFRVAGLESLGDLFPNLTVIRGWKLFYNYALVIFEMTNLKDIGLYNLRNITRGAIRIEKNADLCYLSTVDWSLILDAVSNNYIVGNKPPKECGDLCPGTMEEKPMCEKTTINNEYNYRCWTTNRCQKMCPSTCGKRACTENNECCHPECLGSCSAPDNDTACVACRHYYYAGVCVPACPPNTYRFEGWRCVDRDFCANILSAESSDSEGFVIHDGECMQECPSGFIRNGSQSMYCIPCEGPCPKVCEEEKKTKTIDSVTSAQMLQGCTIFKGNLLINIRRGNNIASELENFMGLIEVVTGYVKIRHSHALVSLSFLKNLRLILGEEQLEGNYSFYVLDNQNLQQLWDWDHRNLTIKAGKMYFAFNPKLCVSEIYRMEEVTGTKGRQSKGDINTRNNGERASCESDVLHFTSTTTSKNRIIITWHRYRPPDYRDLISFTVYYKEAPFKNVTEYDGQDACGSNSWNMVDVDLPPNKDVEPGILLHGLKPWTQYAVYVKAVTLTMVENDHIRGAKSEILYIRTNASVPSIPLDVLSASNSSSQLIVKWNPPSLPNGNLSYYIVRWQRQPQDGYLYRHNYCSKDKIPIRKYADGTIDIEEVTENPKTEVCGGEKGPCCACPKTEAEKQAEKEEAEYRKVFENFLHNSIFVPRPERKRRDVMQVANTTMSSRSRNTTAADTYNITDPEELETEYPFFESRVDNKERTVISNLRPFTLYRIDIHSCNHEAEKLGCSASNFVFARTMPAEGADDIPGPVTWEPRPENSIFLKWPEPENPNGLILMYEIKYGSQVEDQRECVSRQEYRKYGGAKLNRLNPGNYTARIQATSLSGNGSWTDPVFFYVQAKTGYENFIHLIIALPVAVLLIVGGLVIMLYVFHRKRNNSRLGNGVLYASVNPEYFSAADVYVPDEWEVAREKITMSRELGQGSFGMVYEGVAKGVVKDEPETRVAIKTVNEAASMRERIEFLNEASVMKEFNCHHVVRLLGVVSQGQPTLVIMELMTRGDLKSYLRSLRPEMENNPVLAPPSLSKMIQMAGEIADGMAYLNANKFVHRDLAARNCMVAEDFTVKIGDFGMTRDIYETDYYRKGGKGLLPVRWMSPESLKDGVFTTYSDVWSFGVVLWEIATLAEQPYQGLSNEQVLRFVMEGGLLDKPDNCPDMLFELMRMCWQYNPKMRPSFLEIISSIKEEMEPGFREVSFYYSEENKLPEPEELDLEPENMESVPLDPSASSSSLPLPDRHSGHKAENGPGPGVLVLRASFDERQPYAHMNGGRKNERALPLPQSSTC

Row | Structure (SMILES) | IC50 (IGF-1R) | IC50 (HER2)
1 | CCOC(=O)c1cnc2ccc(C(F)(F)F)cc2c1Nc1cccc(Br)c1 [Compound A716, 4-(3-Bromophenylamino)-3-ethoxycarbonyl-6-trifluoromethylquinoline] | > 100 µM | > 100 µM
2 | CCOC(=O)c1cnc2ccc(C(F)(F)F)cc2c1Nc1ccc(OC)c(OC)c1 [Compound A726, 3-Ethoxycarbonyl-4-(3,4-dimethoxyphenylamino)-6-trifluoromethylquinoline] | > 100 µM | > 100 µM
3 | CCOC(=O)c1cnc2c(F)ccc(F)c2c1Sc1ccc(Cl)cc1 [Compound A732, 4-(4-Chlorophenylmercapto)-5,8-difluoro-3-ethoxycarbonylquinoline] | > 100 µM | 
4 | CCOC(=O)c1cnc2ccc(C(F)(F)F)cc2c1Nc1ccccc1C#N [Compound A723, 4-(2-Cyanophenylamino)-3-ethoxycarbonyl-6-trifluoromethylquinoline] | > 100 µM | > 10 µM
5 | CCOC(=O)c1cnc2ccc(C(F)(F)F)cc2c1NCc1cccc(C(F)(F)F)c1 [Compound A718, 3-Ethoxycarbonyl-4-(3-trifluoromethylbenzylamino)-6-trifluoromethylquinoline] | > 100 µM | > 50 µM
6 | CCOC(=O)c1cnc2ccc(C(F)(F)F)cc2c1Nc1cccc(Cl)c1 [Compound A728, 4-(3-Chlorophenylamino)-3-ethoxycarbonyl-6-trifluoromethylquinoline] | > 100 µM | > 75 µM
7 | CCOC(=O)c1cnc2ccc(C(F)(F)F)cc2c1Nc1ccc(C#N)cc1 [Compound A725, 4-(4-Cyanophenylamino)-3-ethoxycarbonyl-6-trifluoromethylquinoline] | > 100 µM | > 100 µM
8 | CCOC(=O)c1cnc2c(F)cc(F)cc2c1Sc1ccc(Cl)cc1 [Compound A730, 4-(4-Chlorophenylmercapto)-6,8-difluoro-3-ethoxycarbonylquinoline] | > 50 µM | 
9 | CCOC(=O)c1cnc2c(F)ccc(F)c2c1Sc1cccc(C(F)(F)F)c1 [Compound A713, 3-Ethoxycarbonyl-5,8-difluoro-4-(3-trifluoromethylphenylmercapto)quinoline] | > 100 µM | 36 µM
10 | CCOC(=O)c1cnc2ccc(C(F)(F)F)cc2c1NCc1ccccc1C(F)(F)F [Compound A717, 3-Ethoxycarbonyl-4-(2-trifluoromethylbenzylamino)-6-trifluoromethylquinoline] | > 100 µM | > 100 µM
11 | CCOC(=O)c1cnc2cc(Cl)c(F)cc2c1Sc1ccc(Cl)cc1 [Compound A731, 7-Chloro-4-(4-chlorophenylmercapto)-6-fluoro-3-ethoxycarbonylquinoline] | > 50 µM | 
12 | CCOC(=O)c1cnc2ccc(C(F)(F)F)cc2c1Nc1ccccc1C(F)(F)F [Compound A720, 3-Ethoxycarbonyl-4-(2-trifluoromethylphenylamino)-6-trifluoromethylquinoline] | > 100 µM | > 100 µM

Further lines, results first:

Row | IC50 (IGF-1R) | IC50 (HER2) | Structure (SMILES)
13 | > 100 µM | > 100 µM | CCOC(=O)c1cnc2ccc(C(F)(F)F)cc2c1NCc1ccc(C(F)(F)F)cc1 [Compound A719, 3-Ethoxycarbonyl-4-(4-trifluoromethylbenzylamino)-6-trifluoromethylquinoline]
14 | > 100 µM | > 100 µM | CCOC(=O)c1cnc2ccc(C(F)(F)F)cc2c1Nc1ccc(C(F)(F)F)cc1 [Compound A722, 3-Ethoxycarbonyl-4-(4-trifluoromethylphenylamino)-6-trifluoromethylquinoline]
15 | > 100 µM | > 100 µM | CCOC(=O)c1cnc2ccc(C(F)(F)F)cc2c1Nc1ccc(Cl)cc1 [Compound A729, 4-(4-Chlorophenylamino)-3-ethoxycarbonyl-6-trifluoromethylquinoline]
16 | > 100 µM | > 100 µM | CCOC(=O)c1cnc2ccc(C(F)(F)F)cc2c1Nc1cccc(C(F)(F)F)c1 [Compound A721, 3-Ethoxycarbonyl-4-(3-trifluoromethylphenylamino)-6-trifluoromethylquinoline]
17 | > 100 µM | > 10 µM | CCOC(=O)c1cnc2ccc(C(F)(F)F)cc2c1Nc1ccc(Br)cc1 [Compound A727, 4-(4-Bromophenylamino)-3-ethoxycarbonyl-6-trifluoromethylquinoline]
